# According to publication PMC6270778, “Novel Cinnamic Acid Derivatives as Antioxidant and Anticancer Agents: Design, Synthesis and Modeling Studies” (Molecules, 2014):
# Tests used:
# [1] = ABTS+ decolorization assay; conditions: 0.1 mM
# Description: The ABTS^•+ is derived from the oxidation of ABTS by potassium persulfate. It is a decolorization assay. The addition of electron-donating antioxidants leads to ABTS^•+ reduction. The chemistry taking place involves the direct generation of the ABTS^•+ with no involvement of an intermediary radical.
# In this assay, ethanol is used for the dilution of the ABTS^+• solution. ABTS is dissolved in water to a 7 mM and reacts with 2.45 mM […] to produce the ABTS radical cation (ABTS^+•) by allowing the mixture to stand in the dark at room temperature for 12–16 h before use. Ten μL of diluted ABTS^+• solution (734 nm) is added to 10 μL of antioxidant compounds or Trolox standards (final concentration 0–0.1 mM) in ethanol and the absorbance is measured at 30 °C exactly 1 min after the initial mixing (Table 3).
# [2] = Superoxide radical scavenging activity (non-enzymatic, PMS/NADH, NBT method); conditions: 0.1 mM; no = no action under the used experimental conditions
# Description: The superoxide anion radical (O2^−·) is less toxic than the hydroxyl radical, but still being one of the most known toxic ROS. Two different experimental assays are followed for the determination of superoxide anion radical scavenging activity: (i) one involves an enzymatic production of superoxide anions and (ii) the other is supported by a non- enzymatic procedure. Herein the test is performed at 0.1 mM concentration, generating superoxide anion radicals by a non-enzymatically assay (Table 3). Compound 1i presented the highest activity, followed by compound 1ii (75% and 50%, respectively).
# Superoxide radicals were produced non-enzymatically by mixing PMS, NADH and air–oxygen. The nitroblue tetrazolium method was used for the estimation of the produced radicals. The reaction mixture containing compounds (0.1 mM), 3 μM PMS, 78 μM NADH, and 25 μM NBT in 19 μM phosphate buffer pH 7.4 was incubated for 2 min at room temperature. The acrylic acids were preincubated for 2 min before adding NADH (Table 4) and the absorption was recorded at 560 nm.
# [3] = Interaction with the stable radical DPPH
# Description: The novel acids were studied for the antioxidant activity by the use of the sTable 2,2-diphenyl-1-picrylhydrazyl radical (DPPH) at concentrations 0.05 and 0.1 mM after 20 and 60 min (Table 2). In the DPPH assay, the dominant chemical reaction involved is the reduction of the DPPH radical by single electron transfer SET from the antioxidant. Phenolic compounds eg. […] The compounds presented reducing abilities which ranged nearly 29% (4ii), small differences were found among the compounds with time and concentration. […] Due to steric reasons the interaction of DPPH with the tested compounds is low.
# To a solution of DPPH in absolute ethanol the appropriate volume of the compounds (0.05 and 0.1 mM final concentrations) dissolved in DMSO was added. The absorbance was recorded at 517 nm after 20 and 60 min at room temperature (Table 3).
# [4] = Hydroxyl radicals scavenging activity (Fe3+/ascorbic acid system, competition with DMSO); conditions: 0.1 mM; no = no action under the used experimental conditions
# Description: Thus we evaluated our acids for their competition with DMSO for ˙OH radicals was measured, hydroxyl radicals were produced by the Fe^3+/ascorbic acid system and expressed as percent inhibition of formaldehyde formation at 0.1 mM concentration (Table 3).
# The hydroxyl radicals were produced by the Fe ^3+/ascorbic acid system. EDTA (0.1 mM), Fe ^3+ (167 μM), DMSO (33 mM) in phosphate buffer (50 mM, pH 7.4), the tested compounds (0.1 mM) and ascorbic acid (10 mM) were mixed in test tubes. The solutions were incubated at 37 °C for 30 min. The reaction was stopped by CCl3COOH (17% w/v) (Table 4) and the % scavenging activity of the tested compounds for hydroxyl radicals was given.
# [5] = Inhibition of linoleic acid peroxidation (AAPH); conditions: 0.1 mM
# Excerpt: For the in vitro study of the free radical production, azo compounds generating free radicals through spontaneous thermal decomposition are used. The water soluble 2,2'-azobis(2-amidinopropane) hydrochloride (AAPH) is recommended as appropriate for measuring radical-scavenging activity in vitro. The activity of the peroxyl radicals produced by the action of AAPH greatly resembles to cellular activities such as lipid peroxidation. The phenyl substituted acids presented remarkable activity at 0.1 mM concentration (84%–92%) compared to the non-substituted derivatives (20%–63%).
# For initiating the free radical, 2,2'-azobis(2-amidinopropane) dihydrochloride (AAPH) is used. The final solution in the UV cuvette consisted of ten microliters of the 16 mM linoleate sodium dispersion 0.93 mL of 0.05 M phosphate buffer, pH 7.4, thermostatted at 37 °C. 50 μL of 40 mM AAPH solution was added as a free radical initiator at 37 °C under air and 10 μL of the tested compounds. The oxidation of linoleic acid sodium salt results a conjugated diene hydroperoxide. The reaction is monitored at 234 nm (Table 3).
structure (smiles),measurement,setting,value
"O=C1O[C@H]([C@@H](O)CO)C(O)=C1O [Ascorbic Acid, reference compound]",ABTS+· (%) (±SD),[1],96 ± 0.9%
"O=C(O)/C=C/c1ccc(O)c(O)c1 [Caffeic acid, caffeic acid, reference compound]",O2−· (%) (±SD),[2],46 ± 0.5%
"CC(Cc1ccc(O)c(O)c1)C(C)Cc1ccc(O)c(O)c1 (stereo not drawn) [NDGA, nordihydroguaretic acid, reference compound]","RA % (±SD), DPPH","[3]; 0.05 mM, 20 min",85 ± 1.6%
same,"RA % (±SD), DPPH","[3]; 0.05 mM, 60 min",83 ± 1.1%
same,"RA % (±SD), DPPH","[3]; 0.1 mM, 20 min",81 ± 0.8%
same,"RA % (±SD), DPPH","[3]; 0.1 mM, 60 min",83 ± 0.7%
"Cc1c(C)c2c(c(C)c1O)CCC(C)(C(=O)O)O2 (stereo not drawn) [Trolox, reference compound]",HO (%) (±SD),[4],73 ± 1.0%
same,ABTS+· (%) (±SD),[1],88 ± 1.7%
same,"AAPH (%) (±SD), inhibition of linoleic acid peroxidation",[5],63 ± 1.3%
